Series [1] in a line: Accelerated deterioration (xenon weather meter X25, 120 hours) of photochromic cured product prepared by kneading method. It is filed as physicochemical. Conditions: 1 mm cured product, 0.106 mmol per 100 g monomer, A120/A0×100 after 120 hours xenon weather meter. The method, then:
(§1) • [1] Maximum Absorption Wavelength (λmax): The maximum absorption wavelength after color development, measured using a spectrophotometer (instantaneous multichannel photodetector MCPD3000) manufactured by Otsuka Electronics Co., Ltd. was used as an indicator for the color tone during the color development. • [2] 23°C Color Optical Density (A23): A difference between an absorbancy measured after light irradiation at 23°C for 300 seconds {ε(300)} and an absorbancy without light irradiation ε(0) at the maximum absorption wavelength was used as an indicator for the color optical density. […] 23°C color fading half-life [τ1/2 (sec.)]: A time required for the absorbancy of the sample at the maximum absorption wavelength to decrease to 1/2 of {ε(300)-ε(0)} when the light irradiation was terminated after the light irradiation at 23°C for 300 seconds, was used as an indicator for the color fading speed. The shorter this time, the higher the color fading speed. • [4] Residual rate (A120/A0×100): The obtained photochromic plastic lens was subjected to accelerated deterioration using a xenon weather meter X25 manufactured by Suga Test Instruments Co., Ltd. for 120 hours. Subsequently, the color optical density was evaluated before and after the test, then a color optical density before the test (A0) and a color optical density after the test (A120) were measured, and a ratio (A120/A0) was defined as a residual rate. The residual rate was used as an indicator for a color developing durability. The higher the residual rate, the higher the color developing durability. The results of Examples 26, 50, and Comparative Examples 1 to 8 are summarized in Table 1, and the results of Examples 27 to 49 are summarized in Tables 2 and 3.
First, the photochromic compound obtained in Example 1, additives, and a polymerizable compound were mixed to obtain a curable composition.
As the polymerizable compound, a combination of the following polymerizable monomers was used. • 1,3-bis(isocyanatomethyl)cyclohexane: 36.7 parts by mass Pentaerythritol tetrakis(3-mercaptopropionate): 39.4 parts by mass • Polyoxyethylene polyoxypropylene lauryl ether (Wonder Surf 140 manufactured by Aoki Oil Industrial Co., Ltd.): 17.4 parts by mass • 1-decanethiol: 2.8 parts by mass • RX-1 adjusted according to the method described in Patent Document 13: 3.8 parts by mass
Note that the photochromic compound was added to the curable composition so that the amount of the photochromic compound was 0.106 mmol based on 100 g of the total amount of the polymerizable monomer. The following additives were used: Dimethyltin dichloride • : 0.05 part by mass • Irganox 245: 0.1 part by mass • 2-ethylhexyl 4-methoxycinnamate: 0.6 part by mass
The prepared curable composition was thoroughly defoamed, then injected into a glass mold having a 1 mm gap, and polymerized by cast polymerization. The polymerization was carried out in an air furnace while gradually raising the temperature from 27°C to 120°C over 18 hours. After the polymerization, the cured product was removed from the glass mold to obtain a photochromic cured product having a thickness of 1 mm. The obtained photochromic cured product was evaluated in the same manner as in Example 26.
(Examples 85 to 99, and Comparative Example 14 to 18) Photochromic cured products were prepared using photochromic compounds presented in Tables 6 and 7 in the same manner as in Example 84. The results of Examples 84 and 85 and Comparative Examples 14 to 18 are summarized in Table 6, and the results of Examples 86 to 99 are summarized in Table 7.

Series [2] can be described thus: Photochromic properties of photochromic laminate (plastic lens) prepared by coating method. The series is classed as physicochemical. Conditions: 40 µm photochromic layer on thiourethane lens, 0.25 mmol compound per 100 g monomers, after color development.
Excerpt: First, the photochromic compound obtained in Example 1, a photoinitiator, and a polymerizable compound were mixed to obtain a curable composition.
Polyethylene glycol dimethacrylate (average molecular weight: 736): 42 parts by mass • Polyethylene glycol dimethacrylate (average molecular weight: 536): 12 parts by mass • Trimethylolpropane trimethacrylate: 38 parts by mass γ-methacryloyloxypropyl trimethoxysilane: 2 parts by mass Glycidyl methacrylate: 1 part by mass
Note that the photochromic compound was added to the curable composition so that the amount of the photochromic compound was 0.25 mmol based on 100 g of the total amount of the radical-polymerizable monomers.
Phenylbis(2,4,6-trimethylbenzoyl)phosphine oxide (photoinitiator: Omnirad 819): 0.3 parts by mass Ethylene bis(oxyethylene) bis[3-(5-tert-butyl-4-hydroxy-m-tolyl)propionate] (stabilizer, Irganox 245): 1 part by mass Bis(1,2,2,6,6-pentamethyl-4-piperidyl) sebacate: 3 parts by mass Leveling agent (L7001) manufactured by Dow Corning Toray Co.,Ltd.: 0.1 part by mass
First, a thiourethane-based plastic lens having a central thickness of 2 mm and a refractive index of 1.60 was prepared as the optical substrate. Note that this thiourethane-based plastic lens was pre-treated by alkaline etching with a 10% sodium hydroxide aqueous solution at 50°C for 5 minutes, followed by sufficient washing with distilled water.
A surface of the above-described plastic lens was coated with a moisture-curable primer (product name: TR-SC-P, manufactured by Tokuyama Corporation) at a rotation frequency of 70 rpm for 15 seconds, followed by 1000 rpm for 10 seconds, using a spin coater (1H-DX2, manufactured by MIKASA CO., LTD), Subsequently, about 2 g of the photochromic curable composition obtained above was spin-coated at a rotation frequency of 60 rpm for 40 seconds, followed by 600 rpm for 10 to 20 seconds, to form a photochromic coating layer with a film thickness of 40 µm.
The lens with the surface coated with the photochromic curable composition (photochromic coating layer) was irradiated with light using a metal halide lamp with an output power of 200 mW/cm^2 in a nitrogen gas atmosphere for 90 seconds to cure the coating film. Subsequently, the lens was further heated at 110°C for 1 hour to prepare a photochromic laminate having a photochromic layer.
In the same manner as in Example 26, photochromic laminates were prepared using the photochromic compounds obtained in Examples 2 to 25.
as §1, with “The higher the residual rate, the higher the color developing durability. The results of Examples 26, 50, and Comparative Examples 1 to 8 are summarized in Table 1, and the results of Examples 27 to 49 are summarized in Tables 2 and 3.” left out

On to `COc1ccc(C2(c3ccc(N(C)c4ccccc4)cc3)C=Cc3c4c(c5cc(-c6ccc(N7CCOCC7)cc6)c(OC)cc5c3O2)-c2ccccc2C4(C)C)cc1` (stereo not shown) [Example 1], for which the Residual rate in series [1] is on record as 72%. For the same compound, the results for the Maximum absorption wavelength in series [2] and in series [2] (listed as Formula (37)) were 502 nm and 601 nm, respectively.
As for `CCCC1(CCC)c2cc(OC)ccc2-c2c1c1c(c3cc(OC)ccc23)OC(c2ccc(OC)cc2)(c2ccc(N(C)c3ccccc3)cc2)C=C1` (stereo not shown) [Example 3], in series [1], the Residual rate came to 61%. Further, the Maximum absorption wavelength in series [2] worked out at 470 nm; in series [2] (listed as Formula (46)), 612 nm.
Take `CCCc1ccc(C2(c3ccc(N(C)c4ccccc4)cc3)C=Cc3c4c(c5cc(Sc6c(C)cccc6C)c(OC)cc5c3O2)-c2ccccc2C42CC(C)(C)CC(C)(C)C2)cc1` (stereo not shown) [Example 5]: in series [1], the Residual rate is 75%. Also, the values for the Maximum absorption wavelength in series [2] and in series [2] (listed as Formula (51)) were 509 nm and 591 nm, respectively.
Turning to `CCCC1(CCC)c2ccccc2-c2c1c1c(c3cc(OC)c(-c4ccc(OC)cc4OC)cc23)OC(c2ccc(N(C)c3ccccc3)cc2)(c2ccc(OC)c(F)c2)C=C1` (stereo not shown) [Example 7], the Residual rate in series [1] turned out to be 68%. For the same compound, the Maximum absorption wavelength in series [2] is reported as 496 nm; in series [2] (listed as Formula (55)), 603 nm.
Consider `COCCOCCC1(CCOCCOC)c2cc(C)ccc2-c2c1c1c(c3cc(C)ccc23)OC(c2ccc(N(C)c3ccc(F)cc3)cc2)(c2ccc(OC)c(OC)c2)C=C1` (stereo not shown) [Example 8], for which, in series [1], the Residual rate turned out to be 68%. In addition, the Maximum absorption wavelength in series [2] came to 474 nm; in series [2] (listed as Formula (57)), 597 nm.
As for `CCCCN(c1ccccc1)c1ccc(C2(c3ccc(C)cc3)C=Cc3c4c(c5cc(N6CCOCC6)c(OC)cc5c3O2)-c2ccccc2C4(CC)CC)cc1` (stereo not shown) [Example 10], the Residual rate worked out at 68% in series [1] and 70% in series [1] (listed as Formula (62)). In addition, the Maximum absorption wavelength in series [2] is 512 nm; in series [2] (listed as Formula (62)), 598 nm.
For the compound `COCCCCC1(CCCCOC)c2cc(Sc3c(C)cccc3C)ccc2-c2c1c1c(c3cc(OC)ccc23)OC(c2ccc(OC)cc2)(c2ccc(N(C)c3ccc(OC)cc3)cc2)C=C1` (stereo not shown) [Example 11], the Maximum absorption wavelength in series [2] was 477 nm; in series [2] (listed as Formula (65)) it was 614 nm.
With `COCCN(c1ccccc1)c1ccc(C2(c3ccc4c(c3)OCCO4)C=Cc3c4c(c5cc6c(cc5c3O2)SC(C)(C)O6)-c2ccccc2C42CCC3(CCCCC3)CC2)cc1` (stereo not shown) [Example 14], the figures for the Residual rate in series [1] and in series [1] (listed as Formula (71)) were 71% and 70%, respectively. Also, the Maximum absorption wavelength was 492 nm in series [2] and 586 nm in series [2] (listed as Formula (72)).
Take `CCC1(CC)CCC2(CC1)c1cc(OC(F)(F)F)ccc1-c1c2c2c(c3cc(OC)ccc13)OC(c1ccc(N(C)c3ccccc3)cc1)(c1ccc(OC)c(C)c1)C=C2` (stereo not shown) [Example 16]: the Residual rate in series [1] is reported as 64%. Moreover, the figures for the Maximum absorption wavelength in series [2] and in series [2] (listed as Formula (77)) were 472 nm and 584 nm, respectively.
Take `COCCC1(CCOC)c2ccccc2-c2c1c1c(c3cc(OC)c(-c4ccc(N(c5ccccc5)c5ccccc5)cc4)cc23)OC(c2ccc(Oc3ccccc3)cc2)(c2ccc(N(C)c3ccccc3)cc2)C=C1` (stereo not shown) [Example 23]: the results for the Maximum absorption wavelength in series [2] and in series [2] (listed as Formula (85)) were 506 nm and 609 nm, respectively.
Turning to `CCCCOCCC1(CCOCCCC)c2ccccc2-c2c1c1c(c3cc(OC)c(NC(=O)c4ccccc4)cc23)OC(c2ccc(N(C)c3ccccc3)cc2)(c2ccc(OC)c(F)c2)C=C1` (stereo not shown) [Example 53], the Maximum absorption wavelength in series [2] is 500 nm; in series [2] (listed as Formula (95)), 605 nm.
In the case of `COc1ccc(N(C)c2ccc(C3(c4ccc(CCO[Si](C)(C)CC[Si](O[Si](C)(C)C)(O[Si](C)(C)C)O[Si](C)(C)C)cc4)C=Cc4c5c(c6cc(N(C)c7ccccc7)c(OC)cc6c4O3)-c3ccc(C(F)(F)F)cc3C53CCC(C)(C)CC3)cc2)cc1` (stereo not shown) [Example 60], the results for the Maximum absorption wavelength in series [2] and in series [2] (listed as Formula (121)) were 523 nm and 582 nm, respectively.

Values taken from patent EP4692072A1, “PHOTOCHROMIC COMPOUND, PROPARGYL ALCOHOL COMPOUND, CURABLE COMPOSITION, OPTICAL ARTICLE, LENS, AND SPECTACLES” (TOKUYAMA CORPORATION, priority 2023, dated 2024).
